Laboratory results from the supplement of paper PMC10307832.

Legend:
Test in all cases: relative viability (nuclei count vs DMSO), 5 days (fraction); higher = more cells survive
GSK126 + Linsitinib = compound: CC[C@H](C)N1C=C(C2=C(C=C(C=C21)C3=CN=C(C=C3)N4CCNCC4)C(=O)NCC5=C(C=C(NC5=O)C)C)C [GSK126] + C[C@]1(O)C[C@@H](c2nc(-c3ccc4ccc(-c5ccccc5)nc4c3)c3c(N)nccn32)C1 [Linsitinib] (partner 1 µM)
Method in brief: (§1)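 Lung cancer cell lines were seeded in 1536-well plates and dosed by pin tool the next day, with either a single drug or a fixed anchor-drug dose combined with five library-drug doses (not always all listed) spaced in √10 steps. Five days later, one step fixed the cells and stained their nuclei (final 0.05% Triton X-100, 1% formaldehyde, 1 ug/ml Hoechst), and nuclei were counted on 4× images. Relative viability is the nuclei count in treated wells divided by the count in vehicle wells, and each value is the median of duplicate plates.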

GSK126 + Phenformin = compound: CC[C@H](C)N1C=C(C2=C(C=C(C=C21)C3=CN=C(C=C3)N4CCNCC4)C(=O)NCC5=C(C=C(NC5=O)C)C)C [GSK126] + N=C(N)NC(=N)NCCc1ccccc1 [Phenformin] (partner 250 µM)
Method in brief: as §1

Carboplatin + Olaparib = compound: C1CC(C1)(C(=O)O)C(=O)O.[NH2-].[NH2-].[Pt+2] [Carboplatin] + O=C(c1cc(Cc2n[nH]c(=O)c3ccccc23)ccc1F)N1CCN(C(=O)C2CC2)CC1 [Olaparib] (partner 8 µM)
Method in brief: as §1

Carboplatin + Tozasertib = compound: C1CC(C1)(C(=O)O)C(=O)O.[NH2-].[NH2-].[Pt+2] [Carboplatin] + Cc1cc(Nc2cc(N3CCN(C)CC3)nc(Sc3ccc(NC(=O)C4CC4)cc3)n2)n[nH]1 [Tozasertib] (partner 0.1 µM)
Method in brief: as §1

Cell Line | relative viability (GSK126 + Linsitinib; first compound 0.08 µM) | relative viability (GSK126 + Linsitinib; first compound 0.253 µM) | relative viability (GSK126 + Linsitinib; first compound 0.8 µM) | relative viability (GSK126 + Linsitinib; first compound 2.53 µM) | relative viability (GSK126 + Linsitinib; first compound 8 µM) | relative viability (GSK126 + Phenformin; first compound 0.08 µM) | relative viability (GSK126 + Phenformin; first compound 0.253 µM) | relative viability (GSK126 + Phenformin; first compound 0.8 µM) | relative viability (GSK126 + Phenformin; first compound 2.53 µM) | relative viability (GSK126 + Phenformin; first compound 8 µM) | relative viability (Carboplatin + Olaparib; first compound 0.08 µM) | relative viability (Carboplatin + Olaparib; first compound 0.253 µM) | relative viability (Carboplatin + Olaparib; first compound 0.8 µM) | relative viability (Carboplatin + Olaparib; first compound 2.53 µM) | relative viability (Carboplatin + Olaparib; first compound 8 µM) | relative viability (Carboplatin + Tozasertib; first compound 0.08 µM) | relative viability (Carboplatin + Tozasertib; first compound 0.253 µM) | relative viability (Carboplatin + Tozasertib; first compound 0.8 µM) | relative viability (Carboplatin + Tozasertib; first compound 2.53 µM) | relative viability (Carboplatin + Tozasertib; first compound 8 µM)
A-427 | 1.19 | 1.19 | 1.09 | 1.17 | 1.11 | 0.362 | 0.34 | 0.311 | 0.346 | 0.258 | 0.733 | 0.695 | 0.88 | 0.648 | 0.712 | 0.188 | 0.237 | 0.238 | 0.219 | 0.221
SW 1573 | 0.813 | 0.761 | 0.743 | 0.816 | 0.746 | 0.41 | 0.4 | 0.376 | 0.439 | 0.423 | 0.579 | 0.552 | 0.477 | 0.493 | 0.234 | 0.2 | 0.191 | 0.19 | 0.173 | 0.207
PC-14 | 0.944 | 0.994 | 0.982 | 0.968 | 0.954 | 0.554 | 0.611 | 0.667 | 0.651 | 0.565 | 0.266 | 0.266 | 0.171 | 0.118 | 0.0838 | 0.553 | 0.582 | 0.443 | 0.314 | 0.202
LOU-NH91 | 0.975 | 0.884 | 0.924 | 0.977 | 0.973 | 0.785 | 0.755 | 0.692 | 0.662 | 0.639 | 0.955 | 0.973 | 0.873 | 0.831 | 0.844 | 0.727 | 0.807 | 0.671 | 0.63 | 0.637
BEN | 1.19 | 0.953 | 0.813 | 0.893 | 0.653 | 0.268 | 0.243 | 0.234 | 0.232 | 0.217 | 1.21 | 1.12 | 1.11 | 0.837 | 0.596 | 0.588 | 0.633 | 0.469 | 0.486 | 0.433
NCI-H2085 | 0.903 | 0.774 | 1.02 | 0.89 | 1.02 | 0.871 | 0.667 | 0.677 | 0.725 | 0.732 | 0.817 | 0.844 | 0.761 | 0.786 | 0.687 | 0.899 | 0.875 | 0.727 | 0.902 | 0.788
LCLC-103H | 1.13 | 1.16 | 1.06 | 1.07 | 1.08 | 0.331 | 0.383 | 0.377 | 0.344 | 0.39 | 0.754 | 0.783 | 0.777 | 0.74 | 0.754 | 0.517 | 0.466 | 0.439 | 0.532 | 0.473
ABC-1 | 0.83 | 1.03 | 0.67 | 0.703 | 0.755 | 0.243 | 0.262 | 0.268 | 0.244 | 0.242 | 1.09 | 0.759 | 0.781 | 0.654 | 0.553 | 0.208 | 0.201 | 0.164 | 0.186 | 0.207
NCI-H661 | 0.531 | 0.561 | 0.519 | 0.719 | 0.497 | 0.277 | 0.264 | 0.691 | 0.269 | 0.244 | 0.73 | 0.794 | 0.675 | 0.737 | 0.729 | 0.371 | 0.336 | 0.33 | 0.301 | 0.348
H3255 | 0.99 | 0.96 | 0.945 | 0.893 | 0.874 | 0.354 | 0.382 | 0.352 | 0.341 | 0.368 | 0.567 | 0.643 | 0.522 | 0.531 | 0.434 | 0.829 | 0.603 | 0.577 | 0.52 | 0.525
EMC-BAC-2 | 0.798 | 0.841 | 0.771 | 0.824 | 0.839 | 0.606 | 0.528 | 0.505 | 0.483 | 0.482 | 0.483 | 0.484 | 0.447 | 0.461 | 0.385 | 0.313 | 0.292 | 0.275 | 0.266 | 0.326
NCI-H1666 | 0.857 | 1.01 | 0.898 | 0.768 | 1.08 | 0.586 | 0.595 | 0.598 | 0.522 | 0.569 | 0.741 | 0.704 | 0.707 | 0.672 | 0.657 | 0.597 | 0.683 | 0.599 | 0.534 | 0.526
HCC-366 | 0.684 | 0.634 | 0.602 | 0.678 | 0.846 | 0.687 | 0.641 | 0.574 | 0.644 | 0.543 | 0.387 | 0.363 | 0.364 | 0.288 | 0.208 | 0.13 | 0.139 | 0.111 | 0.1 | 0.0814
